The values that follow are results of earlier work, collected in patent US7838281B2, “Sulfide bath” (Soothing Sulfur Spas, LLC, priority 2007, dated 2010).

Molecules are shown by their SMILES.

The conditions of this data set: aqueous solution.

Turning to `O=C(O)O` [HCO3^−], the “pK for the HCO3^−/CO2” value is 6.2.
As to `S` [HS^−], the “pK for the HS^−/S^−2” value is recorded as 14.
